Data taken from the Kinase Knowledgebase extract (Sharma et al. 2016).

Molecular target: CDK2 (UniProt P24941)
Experiment: Enzyme Assay

SMILES | Ki [nM]
CCNc1ncc(C)c(-c2c[nH]c(C(=O)N[C@H](CO)c3ccccc3)c2)n1 | 1000 to 20000
COc1ccccc1Nc1ncc(C)c(-c2c[nH]c(C(=O)N[C@H](CO)c3ccccc3)c2)n1 | 1000 to 20000
Cc1cnc(Nc2ccccc2)nc1-c1c[nH]c(C(=O)NC(CO)c2cccc(C(F)(F)F)c2)c1 (configuration not stated) | 100 to 1000
Cc1cnc(Nc2cccc(C(F)(F)F)c2)nc1-c1c[nH]c(C(=O)N[C@H](CO)c2ccccc2)c1 | < 100
Cc1cnc(NCC2CC2)nc1-c1c[nH]c(C(=O)N[C@H](CO)c2ccccc2)c1 | 1000 to 20000
Cc1cnc(N[C@H]2CC[C@H](O)CC2)nc1-c1c[nH]c(C(=O)N[C@H](CO)c2ccccc2)c1 | < 100
Cc1cnc(NCc2ccccc2)nc1-c1c[nH]c(C(=O)N[C@H](CO)c2ccccc2)c1 | 100 to 1000
Cc1cnc(Nc2ccc(OCc3ccccc3)cc2)nc1-c1c[nH]c(C(=O)N[C@H](CO)c2ccccc2)c1 | < 100
Cc1cnc(Nc2cccc(F)c2)nc1-c1c[nH]c(C(=O)NC(CO)c2cccc(C(F)(F)F)c2)c1 (configuration not stated) | 100 to 1000
Cc1cnc(NC2CC2)nc1-c1c[nH]c(C(=O)N[C@H](CO)c2ccccc2)c1 | 100 to 1000
Cc1cnc(NC2(CO)CC2)nc1-c1c[nH]c(C(=O)N[C@H](CO)c2ccccc2)c1 | 100 to 1000
Cc1cnc(N[C@@H](CO)c2ccccc2)nc1-c1c[nH]c(C(=O)N[C@H](CO)c2ccccc2)c1 | 100 to 1000
